As a reminder, the MIC is the lowest concentration that inhibits growth of the organism. As usually defined, the inhibition is the percentage by which the read-out fell short of the control. One may read the IC50 as the point on the concentration scale where inhibition reaches its midpoint.

SMILES strings stand for the structures. ≈ marks a conversion by molar mass, not a printed value. Some results are limits rather than exact numbers.

These results are taken from ChEMBL document CHEMBL1134120, “Some 3-thioxo/alkylthio-1,2,4-triazoles with a substituted thiourea moiety as possible antimycobacterials” (Bioorg Med Chem Lett, 2001).

A short description of assay [1]: Tested in vitro for killing of Mycobacterium tuberculosis Erdman (ATCC 35801) in monolayers of mouse bone marrow macrophages and 90% reduction was reported using level 3 assay. Details: unit not given here. Format: functional.
Assay [2] in a line: Ratio between EC90 and MIC was reported. It counts as functional.
In assay [3] the test system is Mycolicibacterium fortuitum. The assay can be described thus: In vitro anti-mycobacterial activity expressed as minimum inhibitory concentration against Mycobacterium fortuitum ATCC 6841. It counts as functional.
For assay [4], the system named is Mycobacterium tuberculosis. As to the kind of experiment: Percent reduction of mycobacterial growth using Mycobacterium tuberculosis H37Rv at a concentration of 12.5 ug/mL. It counts as functional.
The test system of assay [5] is Mycobacterium tuberculosis. The assay can be described thus: Compound was evaluated for antituberculosis activity against Mycobacterium tuberculosis in level 2 assay. It counts as functional.
For assay [6], the system named is Mycobacterium tuberculosis. As to the kind of experiment: In vitro antituberculosis activity against Mycobacterium tuberculosis H37Rv using the BACTEC 12B medium using a micro dilution assay( MABA). It counts as functional.
A further assay is filed under the species Mus musculus. As to the kind of experiment: Tested in vitro for killing of Mycobacterium tuberculosis Erdman (ATCC 35801) in monolayers of mouse bone marrow macrophages and 99% reduction was reported using level 3 assay. It counts as functional. Also on record: unit not given here.
Assay [7] has as its system Mycobacterium tuberculosis. The assay can be described thus: Compound was evaluated for antituberculosis activity against Mycobacterium tuberculosis in level 2 assay (performed using BACTEC in which MIC of RMP was found as 0.125 […]). It counts as functional.
Assay [8] can be described thus: Selectivity index (IC50/MIC) was determined. It counts as functional.
For assay [9], the system named is Mycobacterium tuberculosis. The assay can be described thus: Concentration required for inhibition of growth of Mycobacterium tuberculosis in level 2 assay. Format: functional, organism-based.

With `C=CCNC(=S)Nc1ccc(-c2n[nH]c(=S)n2C)cc1`, the EC90 in assay [1] is on record as 0.698. Further, the Ratio in [2] is less than 0.0558. Besides, the MIC in assay [3] was 64 µg/mL (≈ 210 µM); in [5], greater than 12.5 µg/mL; in assay [6] it was 12.5 µg/mL (≈ 40.9 µM). Also, the inhibition at 12.5 µg/mL in assay [4] is 94%. The EC99 in the assay filed under Mus musculus is listed as greater than 100.
As for `CNC(=S)Nc1ccc(-c2n[nH]c(=S)n2-c2ccccc2)cc1`, the values for the MIC in [3] and in assay [6] were 64 µg/mL (≈ 187 µM) and greater than 12.5 µg/mL, respectively. For the same molecule, 12.5 µg/mL produced 27% inhibition in assay [4].
In the same order, the values of `C=CCNC(=S)Nc1ccc(-c2n[nH]c(=S)n2CC=C)cc1` are 32 µg/mL (≈ 96.5 µM), greater than 12.5 µg/mL and 71%.
In the same order, the values of `S/C(=N\C1CCCCC1)Nc1ccc(-c2nnc(S)n2-c2ccccc2)cc1` are 64 µg/mL (≈ 156 µM), greater than 12.5 µg/mL and 13%.
In the case of `CNC(=S)Nc1ccc(-c2nnc(SCc3ccccc3)n2C)cc1`, the MIC was greater than 128 µg/mL in [3] and greater than 12.5 µg/mL in assay [6]. The inhibition at 12.5 µg/mL in [4] was determined as 85%.
For the molecule `C=CCNC(=S)Nc1ccc(-c2n[nH]c(=S)n2CC)cc1`, the MIC is 64 µg/mL (≈ 200 µM) in assay [3] and greater than 12.5 µg/mL in assay [6]. Moreover, 12.5 µg/mL produced 89% inhibition in assay [4].
Regarding `C=CCNC(=S)Nc1ccc(-c2n[nH]c(=S)n2CCc2ccccc2)cc1`, the MIC in assay [3] was 64 µg/mL (≈ 162 µM); in assay [6], greater than 12.5 µg/mL. Also, at 12.5 µg/mL the inhibition in assay [4] was 6%.
Consider `S=C(Nc1ccc(Cl)cc1)Nc1ccc(-c2n[nH]c(=S)n2-c2ccccc2)cc1`, for which the MIC in assay [3] is 64 µg/mL (≈ 146 µM); in [6] it was greater than 12.5 µg/mL. Moreover, in [4], the inhibition at 12.5 µg/mL amounted to 11%.
In turn, `NC[C@H]1O[C@H](O[C@H]2[C@H](O)[C@@H](O[C@H]3O[C@H](CO)[C@@H](O)[C@H](N)[C@H]3O)[C@H](N)C[C@@H]2N)[C@H](N)C[C@@H]1O` [TOBRAMYCIN] came in with an MIC in assay [3] of 32 µg/mL (≈ 68.4 µM).
Turning to `C=CC/N=C(\S)Nc1ccc(-c2nnc(S)n2C2CCCCC2)cc1`, the MIC in assay [3] is 32 µg/mL (≈ 85.7 µM); in [6], greater than 12.5 µg/mL. Besides, in [4], the inhibition at 12.5 µg/mL was 35%.
The matching figures for `CCn1c(S)nnc1-c1ccc(N/C(S)=N/C2CCCCC2)cc1`: 64 µg/mL (≈ 177 µM), greater than 12.5 µg/mL and 10%.
Consider `CCNC(=S)Nc1ccc(-c2n[nH]c(=S)n2-c2ccccc2)cc1`, for which the minimal inhibitory concentration (MIC) was 64 µg/mL (≈ 180 µM) in assay [3] and greater than 12.5 µg/mL in assay [6]. Besides, 12.5 µg/mL produced 17% inhibition in assay [4].
In the same order, the values of `Cn1c(-c2ccc(NC(=S)Nc3ccccc3)cc2)n[nH]c1=S` are 64 µg/mL (≈ 187 µM), greater than 12.5 µg/mL and 29%.
In the case of `C=CCn1c(-c2ccc(NC(=S)Nc3ccccc3)cc2)n[nH]c1=S`, the MIC in assay [3] is 32 µg/mL (≈ 87.1 µM); in [6], greater than 12.5 µg/mL. This molecule also registered an inhibition at 12.5 µg/mL in assay [4] of 0%.
As for `C=CCNC(=S)Nc1ccc(-c2nnc(SCc3ccc(Cl)cc3Cl)n2C)cc1`, the minimum inhibitory concentration (MIC) in [7] was 6.25 µg/mL; in assay [3], greater than 128 µg/mL; in [6] it was less than 12.5 µg/mL. The Ratio in [8] is greater than 1.6. In addition, in assay [4], the inhibition at 12.5 µg/mL was 94%. Further, the 50% inhibitory concentration (IC50) in assay [9] was greater than 10 µg/mL.
`C=CCn1c(-c2ccc(NC(=S)NC)cc2)n[nH]c1=S`: the MIC was greater than 128 µg/mL in assay [3] and greater than 12.5 µg/mL in [6]. Also, 12.5 µg/mL produced 0% inhibition in assay [4].
Take `S=C(Nc1ccccc1)Nc1ccc(-c2n[nH]c(=S)n2-c2ccccc2)cc1`: the MIC was greater than 128 µg/mL in assay [3] and greater than 12.5 µg/mL in [6]. In addition, testing at 12.5 µg/mL in [4] gave an inhibition of 13%.
For the molecule `Cn1c(S)nnc1-c1ccc(N/C(S)=N/C2CCCCC2)cc1`, the minimal inhibitory concentration (MIC) in [3] is 32 µg/mL (≈ 92.1 µM); in assay [6], greater than 12.5 µg/mL. At 12.5 µg/mL the inhibition in [4] was 10%.
Consider `CO[C@H]1/C=C/O[C@@]2(C)Oc3c(C)c(O)c4c(O)c(c(/C=N/N5CCN(C)CC5)c(O)c4c3C2=O)NC(=O)/C(C)=C\C=C\[C@H](C)[C@H](O)[C@@H](C)[C@@H](O)[C@@H](C)[C@H](OC(C)=O)[C@@H]1C` [RIFAMPIN], for which the EC90 in [1] was found to be 0.007. Also, the MIC in assay [3] amounted to 0.25 µg/mL (≈ 0.304 µM). The EC99 in the assay filed under Mus musculus amounted to 0.451.
For `C=CCNC(=S)Nc1ccc(-c2nnc(SCc3ccc(Cl)cc3Cl)n2-c2ccccc2)cc1`, the MIC in assay [3] is greater than 128 µg/mL; in [6], greater than 12.5 µg/mL. The molecule further registered an inhibition at 12.5 µg/mL in [4] of 63%.
`CCNC(=S)Nc1ccc(-c2n[nH]c(=S)n2C)cc1` displayed an EC90 in [1] of 0.303. The Ratio in [2] was less than 0.0242. The MIC was 64 µg/mL (≈ 218 µM) in assay [3], greater than 12.5 µg/mL in [5] and less than 12.5 µg/mL in assay [6]. For the same molecule, at 12.5 µg/mL the inhibition in assay [4] was 90%. The molecule also came in with an EC99 in the assay filed under Mus musculus of 48.65.
Take `S/C(=N\C1CCCCC1)Nc1ccc(-c2nnc(S)n2C2CCCCC2)cc1`: the values for the MIC in [3] and in [6] were greater than 128 µg/mL and greater than 12.5 µg/mL, respectively. At 12.5 µg/mL the inhibition in assay [4] was 12%.
As for `C=CCNC(=S)Nc1ccc(-c2n[nH]c(=S)n2-c2ccccc2)cc1`, the minimal inhibitory concentration (MIC) in assay [3] is 64 µg/mL (≈ 174 µM); in assay [6], greater than 12.5 µg/mL. In addition, the inhibition at 12.5 µg/mL in [4] is 12%.
In turn, `CNC(=S)Nc1ccc(-c2n[nH]c(=S)n2C)cc1` returned an EC90 in assay [1] of 0.371. The EC90/MIC in assay [2] was less than 0.0297. Also, the minimum inhibitory concentration (MIC) in assay [3] was 64 µg/mL (≈ 229 µM); in assay [5], greater than 12.5 µg/mL; in [6], less than 12.5 µg/mL. In addition, the inhibition at 12.5 µg/mL in assay [4] was 93%. Besides, the EC99 in the assay listed under Mus musculus was greater than 100.
